Target: T1, Polyphenol oxidase 2 (Agaricus bisporus, UniProt O42713)
T1 sequence (O42713 whole entry): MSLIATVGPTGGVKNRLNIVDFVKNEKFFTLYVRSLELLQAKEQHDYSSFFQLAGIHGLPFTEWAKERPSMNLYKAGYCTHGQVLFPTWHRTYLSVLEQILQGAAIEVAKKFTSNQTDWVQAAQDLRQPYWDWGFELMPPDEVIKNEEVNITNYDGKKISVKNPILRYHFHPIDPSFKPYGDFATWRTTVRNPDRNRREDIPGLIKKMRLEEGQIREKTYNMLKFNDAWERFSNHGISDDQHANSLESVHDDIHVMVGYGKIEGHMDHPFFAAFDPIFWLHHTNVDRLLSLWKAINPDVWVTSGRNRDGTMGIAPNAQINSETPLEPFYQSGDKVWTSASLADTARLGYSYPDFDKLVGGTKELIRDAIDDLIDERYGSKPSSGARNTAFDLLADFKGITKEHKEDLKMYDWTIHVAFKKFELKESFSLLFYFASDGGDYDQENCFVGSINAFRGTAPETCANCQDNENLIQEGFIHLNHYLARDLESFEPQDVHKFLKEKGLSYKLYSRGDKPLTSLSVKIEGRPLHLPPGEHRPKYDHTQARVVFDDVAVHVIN
Assay: Inhibition of mushroom tyrosinase

| SMILES | IC50 [µM] |
| --- | --- |
| COC(=O)C1C2=Nc3c(O)cccc3[C@]23CC[N+]2([O-])C[C@H](C(C)=O)[C@H]1C[C@H]32 (stereo not given in full) [Alpneumine A] | > 100 |
| COC(=O)C1C2=Nc3c(O)cccc3[C@]23CCN2C[C@@H](C(C)=O)[C@H]1C[C@@H]23 (stereo not given in full) [Alpneumine D] | > 100 |
| COC(=O)C1C2=Nc3c(O)cccc3[C@]23CCN2C[C@H](C(C)=O)[C@H]1C[C@@H]23 (stereo not given in full) [Alpneumine B] | > 100 |
| COC(=O)C1C2=Nc3ccccc3[C@]23CC[N+]2([O-])C[C@H](C(C)=O)[C@H]1C[C@H]32 (stereo not given in full) [Alpneumine C] | > 100 |
| COC(=O)C1C2=Nc3ccccc3[C@]23CCN2C[C@@H](C(C)=O)[C@H]1C[C@@H]23 (stereo not given in full) [Alpneumine E] | > 100 |
